Here are results for 1 compound from US11572564B2, “Microorganisms for producing 1,4-butanediol and methods related thereto” (priority 2011, dated 2023).

The conditions of series [1]: 20° C. and 1 atm; cited from earlier work.
The subject of a further series is E. coli. Kind of series: E. coli CO tolerance experiment (anaerobic growth with saturating CO). Format: cell-based. To be noted: levels achievable at normal atmospheric pressure. As for the experimental part:
To test whether or not E. coli can grow anaerobically in the presence of saturating amounts of CO, cultures were set up in 120 ml serum bottles with 50 ml of Terrific Broth medium (plus reducing solution, NiCl2, Fe(II)NH4SO4, cyanocobalamin, IPTG, and chloramphenicol) as described above for anaerobic microbiology in small volumes. One half of these bottles were equilibrated with nitrogen gas for 30 min. and one half was equilibrated with CO gas for 30 min. An empty vector (pZA33) was used as a control, and cultures containing the pZA33 empty vector as well as both ACS90 and ACS91 were tested with both N2 and CO. All were inoculated and grown for 36 hrs with shaking (250 rpm) at 37° C. […] The bulk of the observed growth occurred overnight with a long lag.

In the case of `[C-]#[O+]` [CO], the maximum water solubility in series [1] was 970 µM. Also, in the series on E. coli, the “sensitivity of laboratory strains of E. coli to CO” value is listed as “insensitive”.
